Consider 13 molecules from US8906908B2, “Hydroxybupropion analogues for treating drug dependence” (priority 2010, dated 2014).

The target of assay [1] is T1, α4β2-nAChR (Homo sapiens, UniProt P17787+P43681).
T1 construct: expressed in transfected cells; host or cells: SH-EP1 epithelial cells (SH-EP1-hα4β2)
As to the kind of experiment: 86Rb+ efflux nAChR functional assay, SH-EP1-hα4β2 cells. It is filed as cell-based. The source says:
(§1) Cell Lines and Culture: Human embryonic kidney (HEK-293) cells stably expressing human DAT, NET or SERT were maintained as previously described in Eshleman, A. J.; Carmolli, M.; Cumbay, M.; Martens, C. R.; Neve, K. A.; Janowsky, A., J. Pharmacol. Exp. Ther. 1999, 289, (2), 877-885. Use was made of several human cell lines that naturally or heterologously express specific, functional, human nAChR subtypes. Cells of the TE671/RD line naturally expresses muscle-type nAChR (a1β1γδ- or α1*-nAChR), and SH-SY5Y neuroblastoma cells naturally expresses autonomic α3β4*-nAChRs (containing α3, β4, probably α5, and sometimes β2 subunits). Different clones of SH-EP1 epithelial cell lines have been engineered to heterologously express either α4β2-nAChR, which are thought to be the most abundant, high affinity nicotine-binding nAChR in mammalian brain, or α4β4-nAChR, another possible brain nAChR subtype (SH-EP1-hα4β2 or α4β4 cells, respectively). These cells were maintained as low passage number (1-26 from our frozen stocks) cultures to ensure stable expression of native or heterologously-expressed nAChR as previously described (see Lukas, R. J.; Fryer, J. D.; Eaton, J. B.; L., G. C., Some methods for studies of nicotinic acetylcholine receptor pharmacology, in Nicotinic receptors and the Nervous System, Levine, E. D., Ed. CRC Press: Boca Raton, 2002; pp 3-27, incorporated herein by reference in its entirety). Cells were passaged once weekly by splitting just-confluent cultures 1/300 (TE671/RD), 1/5 (SH-SY5Y), or 1/20 (transfected SH-EP1) in serum-supplemented medium to maintain log-phase growth.
(§2) After cells had adhered (generally overnight, but no sooner than 4 h later), the medium was removed and replaced with 250 μL per well of complete medium supplemented with ˜350,000 cpm of ^86Rb^+ (PerkinElmer Life and Analytical Sciences, Boston, Mass.) and counted at 40% efficiency using Cerenkov counting (TriCarb 1900 liquid scintillation analyzer[…]; PerkinElmer Life Sciences).
(§3) After at least 4 h and typically overnight, ^86Rb^+ efflux was measured using the “flip-plate” technique. See Lukas, R. J.; Fryer, J. D.; Eaton, J. B.; L., G. C., Some methods for studies of nicotinic acetylcholine receptor pharmacology, in Nicotinic receptors and the Nervous System, Levine, E. D., Ed. CRC Press: Boca Raton, 2002; pp 3-27, incorporated herein by reference in its entirety). Briefly, after aspiration of the bulk of ^86Rb^+ loading medium from each well of the “cell plate,” each well containing cells was rinsed 3× with 2 mL of fresh ^86Rb^+ efflux buffer (130 mM NaCl, 5.4 mM KCl, 2 mM CaCl2, 5 mM glucose, 50 mM HEPES, pH 7.4) to remove extracellular ^86Rb^+. Following removal of residual rinse buffer by aspiration, the flip-plate technique was used again to simultaneously introduce 1.5 mL of fresh efflux buffer containing drugs of choice at indicated final concentrations from a 24-well “efflux/drug plate” into the wells of the cell plate. After a 5 min incubation, the solution was “flipped” back into the efflux/drug plate, and any remaining buffer in the cell plate was removed by aspiration. Cells remaining in the cell plate were lysed and suspended by addition of 1.5 mL of 0.1 M NaOH, 0.1% sodium dodecyl sulfate to each well.
(§4) Similarly, the sum of ^86Rb^+ in cell plates and efflux/drug plates also determined the efficiency of ^86Rb^+ loading (the percentage of applied ^86Rb^+ actually loaded into cells).
(§5) Specific efflux was then taken as the difference in control samples between total and non-specific ^86Rb^+ efflux. Any intrinsic agonist activity of test drugs was ascertained using samples containing test drug only at different concentrations and was normalized, after subtraction of non-specific efflux, to specific efflux in test drug-free, control samples.

The target of assay [2] is T2, α4β4-nAChR (Homo sapiens, UniProt P30926+P43681).
T2 construct: expressed in transfected cells; host or cells: SH-EP1 epithelial cells (SH-EP1-hα4β4)
T2 sequence (P43681 29-627 limits assumed): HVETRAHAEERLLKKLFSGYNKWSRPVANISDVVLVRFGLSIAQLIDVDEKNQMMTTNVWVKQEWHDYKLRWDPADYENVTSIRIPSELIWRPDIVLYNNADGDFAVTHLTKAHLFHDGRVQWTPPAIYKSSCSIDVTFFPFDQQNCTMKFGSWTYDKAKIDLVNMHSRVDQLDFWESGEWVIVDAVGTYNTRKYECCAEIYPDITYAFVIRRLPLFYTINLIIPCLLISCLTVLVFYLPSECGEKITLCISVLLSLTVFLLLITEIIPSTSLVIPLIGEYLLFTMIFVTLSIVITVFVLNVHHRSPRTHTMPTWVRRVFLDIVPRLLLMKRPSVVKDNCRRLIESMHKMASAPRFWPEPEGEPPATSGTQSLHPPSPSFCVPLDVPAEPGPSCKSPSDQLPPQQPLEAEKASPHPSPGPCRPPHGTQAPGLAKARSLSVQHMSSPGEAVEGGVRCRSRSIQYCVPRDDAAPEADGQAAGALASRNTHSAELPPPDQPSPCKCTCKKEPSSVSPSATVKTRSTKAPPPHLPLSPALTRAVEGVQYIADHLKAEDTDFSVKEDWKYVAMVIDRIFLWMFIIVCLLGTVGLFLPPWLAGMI
T2 sequence (P30926 22-498): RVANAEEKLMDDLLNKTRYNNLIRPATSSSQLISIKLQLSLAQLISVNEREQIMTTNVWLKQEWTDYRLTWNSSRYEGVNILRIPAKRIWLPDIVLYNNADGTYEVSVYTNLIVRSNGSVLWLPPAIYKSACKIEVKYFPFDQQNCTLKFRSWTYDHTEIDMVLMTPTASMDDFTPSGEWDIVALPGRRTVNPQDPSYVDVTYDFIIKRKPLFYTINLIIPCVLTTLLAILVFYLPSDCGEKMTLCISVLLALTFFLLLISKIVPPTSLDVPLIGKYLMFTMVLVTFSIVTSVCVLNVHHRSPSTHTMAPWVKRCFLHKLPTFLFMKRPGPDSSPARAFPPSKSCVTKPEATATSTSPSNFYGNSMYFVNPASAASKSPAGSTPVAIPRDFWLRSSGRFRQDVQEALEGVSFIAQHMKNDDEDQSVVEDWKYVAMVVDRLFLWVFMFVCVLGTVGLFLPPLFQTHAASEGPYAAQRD
As to the kind of experiment: 86Rb+ efflux nAChR functional assay, SH-EP1-hα4β4 cells. It is filed as cell-based. Particulars: EC80-EC90 carbamylcholine, parentheses = S.E.M. as multiplication/division factor, read-out: nAChR inhibition IC50 α4β4.
Text: as §1, §2, §3, §4, §5

The target in assay [3] is T3, NE transporters [h(NET)] (Homo sapiens, UniProt P23975).
T3 construct: expressed in transfected cells; host or cells: HEK-293
T3 sequence (P23975 whole entry): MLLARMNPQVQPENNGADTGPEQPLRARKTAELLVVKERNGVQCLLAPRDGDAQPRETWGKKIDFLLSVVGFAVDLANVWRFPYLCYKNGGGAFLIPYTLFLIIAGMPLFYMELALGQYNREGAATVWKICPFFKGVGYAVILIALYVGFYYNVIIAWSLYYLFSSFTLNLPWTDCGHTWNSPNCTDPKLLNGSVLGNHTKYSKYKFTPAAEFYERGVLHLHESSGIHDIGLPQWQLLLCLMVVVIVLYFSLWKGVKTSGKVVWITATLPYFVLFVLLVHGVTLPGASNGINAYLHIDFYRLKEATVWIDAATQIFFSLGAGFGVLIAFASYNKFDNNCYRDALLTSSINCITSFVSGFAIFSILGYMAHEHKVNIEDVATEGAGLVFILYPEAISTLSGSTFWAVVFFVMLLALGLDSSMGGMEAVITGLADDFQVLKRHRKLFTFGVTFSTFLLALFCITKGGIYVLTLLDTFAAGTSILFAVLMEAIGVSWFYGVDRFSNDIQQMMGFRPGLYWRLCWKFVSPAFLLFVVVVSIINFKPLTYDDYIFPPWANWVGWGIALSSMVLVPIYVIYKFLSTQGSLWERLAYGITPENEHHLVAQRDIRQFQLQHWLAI
As to the kind of experiment: Inhibition of [3H]norepinephrine uptake into HEK293 cells stably expressing hNET. The assay is classed as cell-based. Particulars: for selectivity for inhibition of NE over DA uptake: ratio of uptake IC50 values.
Text: as §1
See, for example, Damaj, M. I.; Carroll, F. I.; Eaton, J. B.; Navarro, H. A.; Blough, B. E.; Mirza, S.; Lukas, R. J.; Martin, B. R., Mol. Pharmacol. 2004, 66, (3), 675-682 and Eshleman, A. J.; Carmolli, M.; Cumbay, M.; Martens, C. R.; Neve, K. A.; Janowsky, A., J. Pharmacol. Exp. Ther. 1999, 289, (2), 877-885, both incorporated by reference herein in their entireties.

Assay [4] relates to Male Institute of Cancer Research (ICR) mice. The assay can be described thus: Hot-plate test, blockade of nicotine-induced antinociception. It is filed as in vivo. Particulars: pretreatment 15 min before nicotine 2.5 mg/kg s.c., tested 5 min after nicotine. The text has this:
Animals: Male Institute of Cancer Research (ICR) mice (weighing 20-25 g) obtained from Harlan (Indianapolis, Ind.) were used throughout the study. Animals were housed in an Association for Assessment and Accreditation of Laboratory Animal Care-approved facility, were placed in groups of six, and had free access to food and water. Studies were approved by the Institutional Animal Care and Use Committee of Virginia Commonwealth University.
Hot-Plate Test: Mice were placed into a 10-cm wide glass cylinder on a hot plate (Thermojust Apparatus) maintained at 55° C. for assessment of pain responses mediated at supraspinal levels. To minimize tissue damage, a maximum exposure to the hot plate 40 s was imposed. Measures of control latencies (time until the animal jumped or licked its paws; typically 8-12 s) were done twice for stimuli applied at least 10 min apart for each mouse. Antinociceptive responses after test drug administrations were determined and calculated as the % MPE, where % MPE=[(test latency in s−control latency in s)/(40 s−control latency in s)×100]. Groups of 8 to 12 animals were used for each drug condition. […] The animals were then tested 5 min after administration of a subcutaneous dose of 2.5 mg/kg nicotine.
Background: Thermal pain tests record how soon the animal reacts.

For assay [5], the target named is T4, α3β4*-nAChR (Homo sapiens, UniProt P30926+P32297).
T4 construct: other: EC80-EC90 carbamylcholine; SH-SY5Y; parentheses = S.E.M. as multiplication/division
T4 sequence (P32297 32-505): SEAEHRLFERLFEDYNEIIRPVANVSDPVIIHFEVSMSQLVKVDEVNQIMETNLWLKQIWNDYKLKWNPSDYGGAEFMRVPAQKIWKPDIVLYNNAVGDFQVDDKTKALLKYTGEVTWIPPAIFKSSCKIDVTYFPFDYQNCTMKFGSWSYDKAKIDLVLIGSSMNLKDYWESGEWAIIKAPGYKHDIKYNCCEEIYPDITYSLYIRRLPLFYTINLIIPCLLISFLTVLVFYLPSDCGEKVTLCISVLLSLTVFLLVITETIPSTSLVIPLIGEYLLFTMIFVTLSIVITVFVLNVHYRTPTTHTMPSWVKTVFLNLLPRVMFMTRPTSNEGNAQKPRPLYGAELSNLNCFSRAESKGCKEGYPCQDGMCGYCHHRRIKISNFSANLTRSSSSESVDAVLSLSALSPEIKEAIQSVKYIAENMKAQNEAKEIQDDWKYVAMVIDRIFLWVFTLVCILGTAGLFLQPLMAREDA
T4 sequence (P30926 22-498): as the sequence (P30926 22-498) above
As to the kind of experiment: 86Rb+ efflux nAChR functional assay, SH-SY5Y cells. Particulars: EC80-EC90 carbamylcholine; SH-SY5Y; parentheses = S.E.M. as multiplication/division factor; read-out: nAChR inhibition IC50 α3β4±. The assay is classed as cell-based.
Text: as §1, §2, §3, §4, §5

The mark [6] stands for this setting: EC80-EC90 carbamylcholine, SH-EP1-hα4β2, parentheses = S.E.M. as multiplication/division factor, read-out: nAChR inhibition IC50 α4β2.
Where [7] appears, read: HEK293-hNET, mean ± standard error of three independent experiments, read-out: monoamine uptake inhibition IC50 [3H]NE.

Molecules are shown by their SMILES. Read-outs that look alike come from different tables or passages of the source.

T1 sequence (P43681 29-627 limits assumed): as the sequence (P43681 29-627 limits assumed) above
T1 sequence (P17787 26-502): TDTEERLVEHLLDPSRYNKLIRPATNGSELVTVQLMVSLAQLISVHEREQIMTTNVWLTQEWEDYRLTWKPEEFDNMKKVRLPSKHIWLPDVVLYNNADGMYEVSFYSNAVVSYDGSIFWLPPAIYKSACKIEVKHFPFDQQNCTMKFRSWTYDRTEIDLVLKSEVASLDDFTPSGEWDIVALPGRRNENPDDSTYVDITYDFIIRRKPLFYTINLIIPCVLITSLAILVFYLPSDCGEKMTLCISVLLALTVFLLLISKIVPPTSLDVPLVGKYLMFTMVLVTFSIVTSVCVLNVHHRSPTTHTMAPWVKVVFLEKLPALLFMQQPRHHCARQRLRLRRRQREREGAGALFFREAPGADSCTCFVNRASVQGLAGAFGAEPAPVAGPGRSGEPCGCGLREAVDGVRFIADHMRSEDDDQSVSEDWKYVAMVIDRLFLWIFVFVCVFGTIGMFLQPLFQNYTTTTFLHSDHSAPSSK

`CC1NC(C)(C)COC1(O)c1ccc(Cl)c(Cl)c1` (racemic) [Compound 4n, 2-(3,4-Dichlorophenyl)-3,5,5-trimethylmorpholin-2-ol]: the figures for the IC50 in assay [1] (setting [6]), in assay [2] and in assay [3] were 20 µM, 14 µM and 0.114 µM, respectively. Also, the “selectivity for inhibition of NE uptake over α3β4*-nAChR function” value in assay [3] is roughly 23 fold. Besides, the “AD50 Hot-plate” value in assay [4] is “IA (IA: AD50 > 15 mg/kg)”.

As to `CC1NC(C)(C)COC1(O)c1cc(Cl)cc(Cl)c1` (racemic) [Compound 4p, 2-(3,5-Dichlorophenyl)-3,5,5-trimethylmorpholin-2-ol], the results for the IC50 in assay [1] (setting [6]), in assay [2] and in assay [3] (setting [7]) were 11 µM, 18 µM and 2.44 ± 0.73 µM, respectively. The “selectivity for inhibition of NE uptake over α3β4*-nAChR function” value in assay [3] came to 1.6 fold. For the same molecule, in assay [4], the “AD50 Hot-plate” value is “IA (IA: AD50 > 15 mg/kg)”.

Turning to `C[C@@H]1NC(C)(C)CO[C@@]1(O)c1ccccc1` [Compound 4b, (2S,3S)-2-Phenyl-3,5,5-trimethylmorpholin-2-ol], the IC50 (in general, the point on the concentration scale where inhibition reaches its midpoint) was less than 10 µM in assay [1]; 6.4 µM in assay [1] (setting [6]); 8.9 µM in assay [5]; 92 µM in assay [2]; 0.55 ± 0.09 µM in assay [3] (setting [7]). For the same molecule, the “AD50 Hot-plate” value in assay [4] was “IA (IA: AD50 > 15 mg/kg)”.

Take `C[C@@H]1NC(C)(C)CO[C@@]1(O)c1cccc(F)c1` [Compound 4c, (2S,3S)-2-(3-Fluorophenyl)-3,5,5-trimethylmorpholin-2-ol]: the 50% inhibitory concentration (IC50) in assay [1] (setting [6]) is 1.3 µM; in assay [5] it was 15 µM; in assay [2], greater than 100 µM; in assay [3] (setting [7]) it was 0.74 ± 0.15 µM.

For `C[C@@H]1NC(C)(C)CO[C@@]1(O)c1cccc(Br)c1` [Compound 4d, (2S,3S)-2-(3-Bromophenyl)-3,5,5-trimethylmorpholin-2-ol], the “selectivity for inhibition of α4β2-nAChR over DA uptake inhibition” value in assay [1] is reported as roughly 6 fold. Also, the IC50 in assay [1] (setting [6]) came to 0.55 µM; in assay [5] it was 3.2 µM; in assay [2], 30 µM; in assay [3] (setting [7]), 0.92 ± 0.3 µM. Besides, in assay [3], the “selectivity for inhibition of NE over DA uptake” value is given as roughly 3.6 fold. For the same molecule, in assay [4] (Mus musculus, read-out: AD50 Hot-plate), the ED50 was 3.7 to 8.6 mg/kg.

Take `Cc1cccc([C@]2(O)OCC(C)(C)N[C@H]2C)c1` [Compound 4e, (2S,3S)-2-(m-Tolyl)-3,5,5-trimethylmorpholin-2-ol]: the IC50 in assay [1] (setting [6]) worked out at 6 µM; in assay [5], 8.6 µM; in assay [2] it was 64 µM; in assay [3] (setting [7]), 1.13 ± 0.02 µM.

`COc1cccc([C@]2(O)OCC(C)(C)N[C@H]2C)c1` [Compound 4f, (2S,3S)-2-(3-Methoxyphenyl)-3,5,5-trimethylmorpholin-2-ol]: the IC50 in assay [1] was less than 10 µM; in assay [1] (setting [6]) it was 10 µM; in assay [5], 11 µM; in assay [2] it was greater than 100 µM; in assay [3] (setting [7]), 3 ± 0.9 µM. In assay [3], the “selectivity for inhibition of NE over DA uptake” value is reported as 5 fold. Further, the “AD50 Hot-plate” value in assay [4] is given as “IA (IA: AD50 > 15 mg/kg)”.

Turning to `C[C@@H]1NC(C)(C)CO[C@@]1(O)c1cccc([N+](=O)[O-])c1` [Compound 4g, (2S,3S)-2-(3-Nitrophenyl)-3,5,5-trimethylmorpholin-2-ol], the IC50 is less than 10 µM in assay [1]; 4.8 µM in assay [1] (setting [6]); 14 µM in assay [5]; 80 µM in assay [2]; 1.21 ± 0.34 µM in assay [3] (setting [7]). In addition, the “selectivity for α4β2-nAChR over other nAChR subtypes” value in assay [1] is roughly 3 fold. Besides, the “selectivity for inhibition of NE over DA uptake” value in assay [3] came to 10 fold. In assay [4], the “AD50 Hot-plate” value is “IA (IA: AD50 > 15 mg/kg)”.

`C[C@@H]1NC(C)(C)CO[C@@]1(O)c1ccc(F)cc1` [Compound 4h, (2S,3S)-2-(4-Fluorophenyl)-3,5,5-trimethylmorpholin-2-ol]: the IC50 in assay [1] (setting [6]) was 12 µM; in assay [5] it was 20 µM; in assay [2], greater than 100 µM; in assay [3] (setting [7]), 3.8 ± 0.6 µM. In addition, the “AD50 Hot-plate” value in assay [4] is given as “IA (IA: AD50 > 15 mg/kg)”.

With `C[C@@H]1NC(C)(C)CO[C@@]1(O)c1ccc(Cl)cc1` [Compound 4i, (2S,3S)-2-(4-Chlorophenyl)-3,5,5-trimethylmorpholin-2-ol], the IC50 worked out at 9.2 µM in assay [1] (setting [6]), 5.1 µM in assay [5], 33 µM in assay [2] and 0.83 ± 0.09 µM in assay [3] (setting [7]). For the same molecule, the “AD50 Hot-plate” value in assay [4] is “IA (IA: AD50 > 15 mg/kg)”.

With `Cc1ccc([C@]2(O)OCC(C)(C)N[C@H]2C)cc1` [Compound 4j, (2S,3S)-3,5,5-Trimethyl-2-(4-methylphenyl)morpholin-2-ol], the IC50 in assay [1] (setting [6]) came to 12 µM; in assay [5] it was 8.6 µM; in assay [2] it was 62 µM; in assay [3] (setting [7]), 1.68 ± 0.33 µM. Moreover, in assay [4], the “AD50 Hot-plate” value is listed as “IA (IA: AD50 > 15 mg/kg)”.

For the molecule `COc1ccc([C@]2(O)OCC(C)(C)N[C@H]2C)cc1` [Compound 4k, (2S,3S)-2-(4-Methoxyphenyl)-3,5,5-trimethylmorpholin-2-ol], the IC50 in assay [1] (setting [6]) was 27 µM; in assay [5] it was 11 µM; in assay [2] it was 72 µM; in assay [3] (setting [7]), greater than 10 µM. The “AD50 Hot-plate” value in assay [4] is reported as “IA (IA: AD50 > 15 mg/kg)”.

With `C[C@@H]1NC(C)(C)CO[C@@]1(O)c1ccc(-c2ccccc2)cc1` [Compound 4l, (2S,3S)-2-Biphenyl-4-yl-3,5,5-trimethylmorpholin-2-ol], the IC50 in assay [1] was less than 10 µM; in assay [1] (setting [6]), 1.8 µM; in assay [5] it was 1.3 µM; in assay [2], 8.1 µM; in assay [3] (setting [7]), 10.3 µM. Moreover, the “AD50 Hot-plate” value in assay [4] was “IA (IA: AD50 > 15 mg/kg)”.
